Columns and labels:
Type in all cases: cell-based, human
MDA-MB-231 cells [1] = experiment: Cell cycle analysis by anti-BrdU, anti-phospho-Histone H3 and PI staining; settings: 20 μM, 20 h
Experimental: (§1) FIG. 22A-E. Mdivi-1 inhibits DNA replication and its combination with cisplatin enhances replication stress leading to efficient G2 phase arrest of the cell cycle. (A) MDA-MB-231 cells were treated with cisplatin alone, mdivi-1 alone or the combination at the indicated concentrations for 4 h. Western blot was then performed to detect the phosphorylation status of key proteins involved in DNA damage response. (B) MDA-MB-231 cells were treated with 20 μM cisplatin alone, 20 μM mdivi-1 alone or the combination for 20 h. The distribution of cell cycle was determined by triple staining of the cells with anti-BrdU, anti-phospho-Histone H3 and PI. (C) Quantification of the distribution of cell cycle analyzed in panel B. (D) The effect of mdivi-1 on the rate of DNA synthesis was analyzed by a histogram, which was generated from the data obtained in panel B, showing the changes of BrdU intensity. (E) Cells were treated as described in B and γ-H2AX was analyzed by western blot.
Cells were treated with 20 μM cisplatin, 20 μM mdivi-1, or the combination of 20 μM cisplatin and 20 μM mdivi-1 for 20 h. S phase cells were then pulse-labeled with 10 μM BrdU for 30 min at 37° C. Cells were trypsinized, fixed in 70% ice-cold ethanol, and incubated overnight at 4° C. DNA was denatured in 2 N HCl containing 0.5% Triton X-100, and neutralized with 0.1 M Na2B4O7. Cells were then stained with FITC-labeled anti-BrdU antibody (BD Biosciences, San Jose, Calif.). To determine the number of cells in mitosis, cells were then stained with Alexa Fluor 647-conjugated phospho-Histone H3 (Ser 10) antibody (Cell signaling technology). To measure DNA content, cells were incubated in PI solution (PBS containing 50 μg/ml of PI and 40 μg/ml of RNase A) for 30 min at room temperature. Samples were analyzed on a CyAn ADP Analyzer (Beckman Coulter, Brea, Calif.). Data were analyzed using Summit software.

MDA-MB-231 cells [2] = experiment: CyQUANT cell number after 2 h exposure and wash-out; settings: 50 μM, 2 h exposure then wash-out
Experimental: (§2) FIG. 19A-E. Combination of cisplatin and mdivi-1 produces synergistic pro-apoptotic effect in multidrug resistant tumor cells. (A) MDA-MB-231 cells were treated with increasing doses of mdivi-1 for 72 h. The survival was assessed by MTS assay. […] (B) MDA-MB-231 cells were treated with increasing doses of cisplatin alone or the combination with 20 μM or 50 μM of mdivi-1 for 72 h. The survival was assessed by MTS assay. (C) MDA-MB-231 cells were exposed to cisplatin and mdivi-1 alone or combination at their IC50 or 0.5 fold of their IC50. The combination index (CI) and the normalized isobologram were generated using CompuSyn. (D) MDA-MB-231 cells were treated with DMSO, 50 μM cisplatin alone, 50 μM mdivi-1 alone, or the combination for 2 h. The compounds were then washed out and the cell number was determined every 24 h by CyQuant assay. (E) MDA-MB-231 cells were treated with agents alone, or the combination at a ratio of 1:1 for 20 h. The number of apoptotic cells was determined with antibody recognizing cleaved caspase-3 followed by flow cytometry.
To explore this effect further, MDA-MB-231 cells were treated with DMSO as a vehicle control, 50 μM of cisplatin, 50 μM of mdivi-1, or 50 μM of cisplatin plus 50 μM of mdivi-1 for 2 hours. The cells were then washed with growth media and plated in black 96-well plates. Survivals were measured by CyQUANT assay. Data represent mean±SD. n=4 wells. […]

MDA-MB-231 cells [3] = experiment: Western blot of DNA damage response proteins; settings: 4 h; mdivi-1 alone at 50 μM
Experimental: as §1
Whole cell lysate was prepared by lysing cells in cell lysis buffer (Cell signaling technology) containing complete protease inhibitor (Roche). Cell lysates were then cleared at 15,000 rpm for 15 min at 4° C. […] The protein content was quantified using a Bio-Rad Protein Assay kit (Bio-Rad Laboratories, Hercules, Calif.). […]

MDA-MB-231 cells [4] = experiment: MTS colorimetric survival assay; settings: agent alone, 72 h, read-out: IC50, inhibition of growth / survival
Experimental: as §2, with “(D) MDA-MB-231 cells were treated with DMSO, 50 μM cisplatin alone, 50 μM mdivi-1 alone, or the combination for 2 h.” left out, “(E) MDA-MB-231 cells were treated with agents alone, or the combination at a ratio of 1:1 for 20 h.” left out
Cell proliferation was determined using a CyQUANT Direct Cell Proliferation Assay kit (Invitrogen), the activity of caspase-3/7 was measured using a Caspase-Glo 3/7 Assay Systems (Promega, Madison, Wis.), and the MTS colorimetric survival assay was performed using the CellTiter 96 AQueous One Solution Cell Proliferation Assay kit (Promega, Madison, Wis.), according to the manufacturer's instructions. The survival fractions were calculated after setting untreated control cells at 100%. […]

MDA-MB-231 cells [5] = experiment: CyQUANT growth assay, continuous exposure; settings: various concentrations
Experimental: To test the effect of Drp1 inhibition on tumor cells, MDA-MB-231 cells were plated in black 96-well plates and treated with various concentrations of mdivi-1. Cell numbers were measured by CyQUANT assay every day.

## N.N.[Cl][Pt][Cl] [cisplatin]
MDA-MB-231 cells [1]
  BrdU incorporation into DNA: abolished the uptake of BrdU
  G2 phase cells: 18.97%
MDA-MB-231 cells [2]
  effect on cell growth / survival after short exposure: only slightly slowed down cell growth
MDA-MB-231 cells [3]
  phosphorylation / activation of Chk1: phosphorylated

## COc1cc(-n2c(=S)[nH]c3ccccc3c2=O)c(Cl)cc1Cl [mdivi-1]
MDA-MB-231 cells [4]
  IC50: 55.9 ± 1.92 µM
MDA-MB-231 cells [1]
  BrdU incorporation into DNA: substantially decreased
  S phase cells: 44.23%
MDA-MB-231 cells [2]
  effect on cell growth / survival after short exposure: reversible
MDA-MB-231 cells [5]
  growth of cells: inhibited the growth of MDA-MB-231 breast cancer cells in a dose-dependent manner
MDA-MB-231 cells [3]
  phosphorylation / activation of Chk1: induced activation of Chk1

From patent US9492450B2, “Inhibition of dynamin related protein 1 to promote cell death” (University of Pittsburgh—of the Commonwealth System of …, priority 2011, dated 2016)
